# Measured values taken from patent US4504580A, “Antibiotics produced by fermentation of a novel strain of Streptomyces hygroscopicus” (Bristol-Myers Company, priority 1983, dated 1985).
# Like-named read-outs stand apart in the source and are kept apart here.
# Columns and labels:
# [1] = tested on: Staphylococcus aureus D136; assay: MIC by serial two-fold agar dilution, S. aureus D136; format: cell-based; conditions: Staphylococcus aureus, D136; Table 7; Mueller-Hinton agar; read-out: MIC
# Summary of the method: (§1)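 MIC by serial two-fold agar dilution with a Steer's multi-inoculator. Inoculum was a 10^4 dilution of an overnight Heart Infusion Broth culture. Aminoglycoside-resistant panel comprised APH(3')- or AAC(3)-producing strains.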
# [2] = tested on: Micrococcus luteus PCI 1001; assay: MIC by serial two-fold agar dilution, M. luteus PCI 1001; format: cell-based; conditions: Micrococcus luteus, PCI1001; Table 7; Mueller-Hinton agar; read-out: MIC
# Summary of the method: as §1
# Micrococcus flavus D12 = assay: MIC by serial two-fold agar dilution, M. flavus D12; format: cell-based; conditions: Micrococcus flavus, D12; Table 7; Mueller-Hinton agar; read-out: MIC
# Summary of the method: as §1
# Proteus vulgaris A9436 = assay: MIC by serial two-fold agar dilution, P. vulgaris A9436; format: cell-based; conditions: Proteus vulgaris, A9436; Table 7; Mueller-Hinton agar; read-out: MIC
# Summary of the method: as §1
# Proteus mirabilis A9554 = assay: MIC by serial two-fold agar dilution, P. mirabilis A9554; format: cell-based; conditions: Proteus mirabilis, A9554; Table 7; Mueller-Hinton agar; read-out: MIC
# Summary of the method: as §1
# Proteus morganii A9553 = assay: MIC by serial two-fold agar dilution, P. morganii A9553; format: cell-based; conditions: Morganella morganii, A9553; Table 7; Mueller-Hinton agar; read-out: MIC
# Summary of the method: as §1
# [3] = tested on: Streptococcus pyogenes A20201; assay: MIC by serial two-fold agar dilution, S. pyogenes A20201; format: cell-based; conditions: Streptococcus pyogenes, A20201; Table 8; GC medium; read-out: MIC
# Description: (§2) The minimum inhibitory concentrations (MIC) of Bu-2659A, B, C, D and E were determined for a variety of gram-positive and gram-negative bacteria by the serial two-fold agar dilution method using the Steer's multi-inoculating apparatus. The inoculum was standardized as a 10^4 dilution of an overnight culture of the test organisms in Heart Infusion Broth (Difco). […] Reference antibiotics utilized in these tests included commercially available neomycin as well as its components, neomycins B and C [as used herein, the term "neomycin" means the commercial product containing neomycins B and C at an approximate ratio of 7:3], paromomycin [the commercial product containing >90% of paromomycin I and <10% of paromomycin II] and ribostamycin.
# [4] = tested on: Neisseria gonorrhoeae A20143; assay: MIC by serial two-fold agar dilution, N. gonorrhoeae A20143; format: cell-based; conditions: Neisseria gonorrhoeae, A20143; Table 8; GC medium; read-out: MIC
# Description: as §2
# [5] = tested on: Haemophilus influenzae A9729; assay: MIC by serial two-fold agar dilution, H. influenzae A9729; format: cell-based; conditions: Haemophilus influenzae, A9729; Table 8; GC medium; read-out: MIC
# Description: as §2
# [6] = tested on: Mycobacterium smegmatis 607; assay: MIC by serial two-fold agar dilution, M. smegmatis 607; format: cell-based; conditions: Mycolicibacterium smegmatis, 607; Table 8; No. 1001 medium; read-out: MIC
# Description: as §2
# [7] = tested on: Bacillus brevis IFO 12334; assay: MIC, aminoglycoside-resistant B. brevis IFO 12334; format: cell-based; conditions: Brevibacillus brevis, IFO12334; Table 9; inactivating enzyme ANT (4'); Mueller-Hinton agar; read-out: MIC
# Description: as §2
# Escherichia coli ML 1630 = assay: MIC, aminoglycoside-resistant E. coli ML 1630; format: cell-based; conditions: Escherichia coli, ML1630; Table 9; inactivating enzyme APH(3')-I; Mueller-Hinton agar; read-out: MIC
# Description: as §2
# [8] = tested on: Enterobacter cloacae A20364; assay: MIC, aminoglycoside-resistant E. cloacae A20364; format: cell-based; conditions: Enterobacter cloacae, A20364; Table 9; inactivating enzyme APH(3')-I; Mueller-Hinton agar; read-out: MIC
# Description: as §2
# [9] = tested on: Pseudomonas aeruginosa A20601; assay: MIC, aminoglycoside-resistant P. aeruginosa A20601; format: cell-based; conditions: Pseudomonas aeruginosa, A20601; Table 9; inactivating enzymes AAC(3)-I, APH(3')-II; Mueller-Hinton agar; read-out: MIC
# Description: as §2
# [10] = tested on: resistant strains which produce APH(3') or AAC(3); assay: Susceptibility of aminoglycoside resistant organisms (MIC), overall, Table 9; format: cell-based; conditions: several resistant strains which produce APH(3') or AAC(3)
# Description: as §2
# Escherichia coli Juhl = assay: Experimental systemic infection in mice, E. coli Juhl; format: in vivo; conditions: Escherichia coli, 96 h, im, single treatment, 4 days, read-out: PD50
# Description: (§3) The in vivo activity of Bu-2659A was assessed by experimental systemic infection in mice. The pathogenic bacteria used in the in vivo tests were E. coli Juhl, K. pneumoniae D-11, P. mirabilis A9906, S. aureus Smith and S. pyogenes A20201. Mice were challenged intraperitoneally with approximately 100×LD50 dose of the pathogens in a 5% suspension of hog gastric mucin (American Laboratories, Omaha, Neb.). A single intramuscular treatment with the antibiotic was given immediately after the bacterial challenge. […] Neomycin was comparatively tested as a reference compound. […] In terms of PD50 value Bu-2659A was about one-half as active as neomycin against infections with S. aureus and S. pyogenes.
# [11] = tested on: Klebsiella pneumoniae D-11; assay: Experimental systemic infection in mice, K. pneumoniae D-11; format: in vivo; conditions: Klebsiella pneumoniae, D11, 96 h, im, single treatment, 4 days, read-out: PD50
# Description: as §3
# [12] = tested on: Staphylococcus aureus Smith; assay: Experimental systemic infection in mice, S. aureus Smith; format: in vivo; conditions: Staphylococcus aureus, 96 h, im, single treatment, 4 days, read-out: PD50
# Description: as §3
# Acute toxicity in mice = format: in vivo; conditions: for LD50: mouse, in vivo, mice, read-out: LD50
# Description: The acute toxicity of Bu-2659A was determined in mice by intravenous, intraperitoneal and subcutaneous routes. Neomycin also was tested for comparison purposes. […] The toxicity of Bu-2659A was approximately 1/3 that of neomycin in terms of LD50 values, thus presenting a potential clinical advantage for Bu-2659A.
smiles,measurement,setting,value
"NC[C@@H]1O[C@H](O[C@H]2[C@@H](O)[C@H](O[C@@H]3[C@@H](O)[C@H](O)C[C@H](N)[C@H]3O[C@H]3O[C@H](CN)[C@@H](O)[C@H](O)[C@H]3N)O[C@@H]2CO)[C@H](N)[C@@H](O)[C@@H]1O [Bu-2659A, 1-deamino-1-hydroxyneomycin B]",MIC,[1],0.8 µg/mL
same,MIC,[2],3.1 µg/mL
same,MIC,Micrococcus flavus D12,6.3 µg/mL
same,MIC,Proteus vulgaris A9436,0.4 µg/mL
same,MIC,Proteus mirabilis A9554,0.8 µg/mL
same,MIC,Proteus morganii A9553,1.6 µg/mL
same,MIC,[3],25 µg/mL
same,MIC,[4],50 µg/mL
same,MIC,[5],50 µg/mL
same,MIC,[6],0.4 µg/mL
same,MIC,[7],> 100 µg/mL
same,MIC,Escherichia coli ML 1630,> 100 µg/mL
same,MIC,[8],50 µg/mL
same,MIC,[9],6.3 µg/mL
same,"activity against aminoglycoside-resistant strains, in words",[10],"more active than neomycin, paromomycin and ribostamycin"
same,ED50,Escherichia coli Juhl,3.1 mg/kg
same,ED50,[11],1.1 mg/kg
same,ED50,[12],0.63 mg/kg
same,"acute toxicity compared with neomycin, in words",Acute toxicity in mice; all routes of administration,significantly less toxic than neomycin
same,toxicity relative to neomycin in terms of LD50 values,"Acute toxicity in mice; intravenous, intraperitoneal, subcutaneous",approximately 1/3
same,LD50,"Acute toxicity in mice; ip, intraperitoneal",460 mg/kg
same,LD50,"Acute toxicity in mice; sc, subcutaneous",720 mg/kg
same,LD50,Acute toxicity in mice; intravenous,110 mg/kg
